# Assay results as given in ChEMBL document CHEMBL5532743, “Discovery of a Pentapeptide Antagonist to Human Neuromedin U Receptor 1” (ACS Med Chem Lett, 2024).
# Active and inactive are the calls of the source. No cut-off for these calls is given here. Non-standard residues stand in square brackets, D forms with d. Residues, ends and D or L forms follow the SMILES beside them. *: point of attachment. NMeW = CN[C@@H](Cc1c[nH]c2ccccc12)C(=O)O; Phe(4-F) = N[C@@H](Cc1ccc(F)cc1)C(=O)O; NMeY = CN[C@@H](Cc1ccc(O)cc1)C(=O)O; Acetyl(2-thienyl) = O=C(Cc1cccs1)*; NMeF = CN[C@@H](Cc1ccccc1)C(=O)O; hArg = N=C(N)NCCCC[C@H](N)C(=O)O; αMeF = C[C@](N)(Cc1ccccc1)C(=O)O; Tic = O=C(O)[C@@H]1Cc2ccccc2CN1; NMeN = CN[C@@H](CC(N)=O)C(=O)O; NMeL = CN[C@@H](CC(C)C)C(=O)O; Pip = O=C(O)[C@@H]1CCCCN1
# Legend:
# [1] = biological target: T1, Neuromedin-U receptor 1 (Homo sapiens) (UniProt Q9HB89); test: Antagonist activity at human NMUR1 stably expressed in CHO cells by Fluo-4 AM dye based calcium mobilization assay; format: functional, cell-based; conditions: dose 30-300 nM
# T1 sequence (whole entry): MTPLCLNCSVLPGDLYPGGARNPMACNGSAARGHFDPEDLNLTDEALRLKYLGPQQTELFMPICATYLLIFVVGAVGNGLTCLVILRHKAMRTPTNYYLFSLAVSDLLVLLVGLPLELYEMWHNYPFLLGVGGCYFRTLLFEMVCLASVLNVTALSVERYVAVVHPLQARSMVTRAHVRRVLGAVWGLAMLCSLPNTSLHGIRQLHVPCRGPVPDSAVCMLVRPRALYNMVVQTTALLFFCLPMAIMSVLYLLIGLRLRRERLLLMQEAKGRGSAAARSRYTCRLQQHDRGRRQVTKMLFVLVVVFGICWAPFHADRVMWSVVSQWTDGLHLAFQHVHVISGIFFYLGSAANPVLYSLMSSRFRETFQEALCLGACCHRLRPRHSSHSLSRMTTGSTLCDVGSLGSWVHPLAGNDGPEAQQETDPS
# Neuromedin-U receptor 2 [2] = biological target: T2, Neuromedin-U receptor 2 (Homo sapiens, UniProt Q9GZQ4); test: Antagonist activity at human NMUR2 stably expressed in CHO cells by Fluo-4 AM dye based calcium mobilization assay; format: functional, cell-based; conditions: filed as antagonist, dose 30-300 nM
# Homo sapiens = species on record: Homo sapiens; test: Selectivity ratio of human NMUR2 to human NMUR1
# [3] = Drug degradation in human serum assessed as half life by RP-HPLC analysis; format: ADME, cell-free
# [4] = biological target: T1, Neuromedin-U receptor 1 (Homo sapiens); test: Binding affinity to human NMUR1 assessed as equilibrium binding constant; conditions: filed as antagonist
# [5] = Retention time in human serum measured at 40 min by RP-HPLC analysis; format: ADME, cell-free
# Neuromedin-U receptor 1 = biological target: T3, Neuromedin-U receptor 1 (Homo sapiens, UniProt Q9HB89); test: Antagonist potency at human NMUR1 stably expressed in CHO cells by Fluo-4 AM dye based calcium mobilization assay; format: functional, cell-based; conditions: read-out: pA2 (converted)
# T3 sequence (Q9HB89 whole entry): T1 sequence (whole entry)
# [6] = Drug degradation in rat serum by RP-HPLC analysis; format: ADME, cell-free
# [7] = Drug degradation in human serum assessed as drug recovery incubated for 15 mins in presence of aprotinin by RP-HPLC analysis; format: ADME, cell-free; conditions: 0.25 h
# Neuromedin-U receptor 2 [8] = biological target: T2, Neuromedin-U receptor 2; test: Antagonist potency at human NMUR2 stably expressed in CHO cells by Fluo-4 AM dye based calcium mobilization assay; format: functional, cell-based; conditions: read-out: pA2 (converted)
# Neuromedin-U receptor 2 [9] = biological target: T2, Neuromedin-U receptor 2; test: Binding affinity to human NMUR2 assessed as equilibrium binding constant; conditions: filed as antagonist
# [10] = biological target: T4, Neuromedin-U receptor 1 (Mus musculus) (UniProt O55040); test: Antagonist activity at mouse NMUR1 expressed in HEK293 cells by Fluo-4 AM dye based calcium mobilization assay; format: functional, cell-based
# T4 sequence (whole entry): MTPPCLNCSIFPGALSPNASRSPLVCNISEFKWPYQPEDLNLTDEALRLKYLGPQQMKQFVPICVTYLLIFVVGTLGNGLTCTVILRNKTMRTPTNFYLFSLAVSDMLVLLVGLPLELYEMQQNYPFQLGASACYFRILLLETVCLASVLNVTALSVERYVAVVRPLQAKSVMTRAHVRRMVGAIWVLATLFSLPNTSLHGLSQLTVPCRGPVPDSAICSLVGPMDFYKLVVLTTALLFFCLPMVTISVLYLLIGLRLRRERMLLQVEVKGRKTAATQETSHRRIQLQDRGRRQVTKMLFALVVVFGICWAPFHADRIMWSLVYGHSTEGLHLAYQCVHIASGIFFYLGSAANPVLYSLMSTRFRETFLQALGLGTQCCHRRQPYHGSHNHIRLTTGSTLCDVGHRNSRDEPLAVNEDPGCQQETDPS
# [11] = Stability in human plasma assessed drug recovery measured at 120 mins by RP-HPLC analysis; format: ADME, cell-free; conditions: read-out: Drug recovery
# [12] = Drug metabolism in rat serum assessed as (2S)-5-guanidino-2-[[(2S)-1-[(2S)-5-guanidino-2-[[(2S)-2-[[(2S)-3-(1H-indol-3-yl)-2-[methyl-[2-(2-thienyl)acetyl]amino]propanoyl]amino]-2-methyl-3-phenyl-propanoyl]amino]pentanoyl]pyrrolidine-2-carbonyl]amino]pentanoic acid formation by RP-HPLC analysis; format: ADME, cell-free
# [13] = biological target: Neuromedin-U receptor 2 (Mus musculus) (UniProt Q8BZ39); test: Antagonist activity at mouse NMUR2 expressed in HEK293 cells by Fluo-4 AM dye based calcium mobilization assay; format: functional, cell-based
# [14] = Drug degradation in human serum assessed as drug recovery incubated for 15 mins in presence of argatroban by RP-HPLC analysis; format: ADME, cell-free; conditions: with argatroban, read-out: Drug recovery
# [15] = biological target: T1, Neuromedin-U receptor 1 (Homo sapiens); test: Antagonist activity at human NMUR1 stably expressed in CHO cells at 100 to 1000 nM by Fluo-4 AM dye based calcium mobilization assay; format: functional, cell-based; conditions: filed as antagonist, dose 100-1000 nM
# T2 sequence (Q9GZQ4 whole entry): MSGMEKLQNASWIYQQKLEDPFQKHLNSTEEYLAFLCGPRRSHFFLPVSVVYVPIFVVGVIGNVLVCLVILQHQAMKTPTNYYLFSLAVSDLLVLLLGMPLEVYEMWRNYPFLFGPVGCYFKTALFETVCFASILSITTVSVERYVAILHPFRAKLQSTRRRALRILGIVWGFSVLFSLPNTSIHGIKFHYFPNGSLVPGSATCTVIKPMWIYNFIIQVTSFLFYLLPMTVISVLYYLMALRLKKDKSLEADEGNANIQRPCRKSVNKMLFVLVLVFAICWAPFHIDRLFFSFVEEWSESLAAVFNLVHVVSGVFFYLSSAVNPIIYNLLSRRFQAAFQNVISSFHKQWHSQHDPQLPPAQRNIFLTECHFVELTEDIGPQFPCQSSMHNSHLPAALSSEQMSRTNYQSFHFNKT
# Sequence of Neuromedin-U receptor 2 (Mus musculus) (Q8BZ39 whole entry): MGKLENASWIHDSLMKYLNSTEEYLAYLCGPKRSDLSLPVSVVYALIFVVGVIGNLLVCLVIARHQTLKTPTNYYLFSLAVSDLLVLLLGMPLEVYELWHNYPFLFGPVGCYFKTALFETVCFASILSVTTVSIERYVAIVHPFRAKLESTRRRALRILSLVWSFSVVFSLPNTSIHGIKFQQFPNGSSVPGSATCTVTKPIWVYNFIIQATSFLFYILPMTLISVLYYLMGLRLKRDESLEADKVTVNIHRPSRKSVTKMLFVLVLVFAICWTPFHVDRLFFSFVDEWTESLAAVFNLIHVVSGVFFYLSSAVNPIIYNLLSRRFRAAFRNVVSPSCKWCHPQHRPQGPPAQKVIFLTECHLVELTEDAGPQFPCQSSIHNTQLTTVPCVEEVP
structure (smiles),measurement,setting,value
CN(C(=O)Cc1cccs1)[C@@H](CC(N)=O)C(=O)N[C@@H](Cc1ccccc1)C(=O)N[C@@H](CCCNC(=N)N)C(=O)N1CCC[C@H]1C(=O)N[C@@H](CCCNC(=N)N)C(=O)N[C@@H](CC(N)=O)C(N)=O ({Acetyl(2-thienyl)}-[NMeN]FRPRN-NH2),Activity,[1]; filed as antagonist,Active
CN(C(=O)Cc1cccs1)[C@@H](Cc1c[nH]c2ccccc12)C(=O)N[C@@H](Cc1ccccc1)C(=O)N[C@@H](CCCNC(=N)N)C(=O)N1CCC[C@H]1C(=O)N[C@@H](CCCNC(=N)N)C(=O)O ({Acetyl(2-thienyl)}-[NMeW]FRPR-OH),Activity,[1]; filed as antagonist,Active
same,Activity,Neuromedin-U receptor 2 [2],Active
CN(C(=O)Cc1cccs1)[C@@H](Cc1c[nH]c2ccccc12)C(=O)N[C@@H](Cc1ccccc1)C(=O)N[C@@H](CCCNC(=N)N)C(=O)N1CCCC[C@H]1C(=O)N[C@@H](CCCNC(=N)N)C(=O)N[C@@H](CC(N)=O)C(N)=O ({Acetyl(2-thienyl)}-[NMeW]FR[Pip]RN-NH2),Activity,[1]; filed as antagonist,Active
CN(C(=O)Cc1cccs1)[C@@H](Cc1c[nH]c2ccccc12)C(=O)N[C@@H](Cc1ccccc1)C(=O)N[C@@H](CCCNC(=N)N)C(=O)N1CCC[C@H]1C(=O)N[C@@H](CCCNC(=N)N)C(=O)N[C@@H](CC(=O)O)C(N)=O ({Acetyl(2-thienyl)}-[NMeW]FRPRD-NH2),Activity,[1]; filed as antagonist,Active
CN(C(=O)Cc1cccs1)[C@@H](Cc1c[nH]c2ccccc12)C(=O)N[C@@H](Cc1ccccc1)C(=O)N[C@@H](CCCNC(=N)N)C(=O)N1CCC[C@H]1C(=O)N[C@@H](CCCNC(=N)N)C(=O)N[C@@H](CC(N)=O)C(=O)O ({Acetyl(2-thienyl)}-[NMeW]FRPRN-OH),Activity,[1]; filed as antagonist,Active
CC(C)C[C@H](NC(=O)[C@H](Cc1c[nH]c2ccccc12)N(C)C(=O)Cc1cccs1)C(=O)N[C@@H](CCCNC(=N)N)C(=O)N1CCC[C@H]1C(=O)N[C@@H](CCCNC(=N)N)C(=O)N[C@@H](CC(N)=O)C(N)=O ({Acetyl(2-thienyl)}-[NMeW]LRPRN-NH2),Activity,[1]; filed as antagonist,Active
CN(C(=O)Cc1cccs1)[C@@H](Cc1c[nH]c2ccccc12)C(=O)N[C@@H](Cc1ccccc1)C(=O)N[C@@H](CCCNC(=N)N)C(=O)N1CCC[C@H]1C(=O)N[C@@H](CCCCN)C(=O)N[C@@H](CC(N)=O)C(N)=O ({Acetyl(2-thienyl)}-[NMeW]FRPKN-NH2),Activity,[1],inactive
CN(C(=O)Cc1cccs1)[C@@H](Cc1c[nH]c2ccccc12)C(=O)N[C@@H](Cc1c[nH]c2ccccc12)C(=O)N[C@@H](CCCNC(=N)N)C(=O)N1CCC[C@H]1C(=O)N[C@@H](CCCNC(=N)N)C(=O)N[C@@H](CC(N)=O)C(N)=O ({Acetyl(2-thienyl)}-[NMeW]WRPRN-NH2),Activity,[1]; filed as antagonist,Active
CN(C(=O)Cc1cccs1)[C@@H](Cc1c[nH]c2ccccc12)C(=O)N[C@@H](Cc1ccccc1)C(=O)N[C@@H](CCCNC(=N)N)C(=O)N1CCC[C@H]1C(=O)N[C@@H](CCCNC(=N)N)C(=O)N[C@@H](CC(N)=O)C(N)=O ({Acetyl(2-thienyl)}-[NMeW]FRPRN-NH2),Activity,[1]; filed as antagonist,Active
CN(C(=O)Cc1cccs1)[C@@H](Cc1c[nH]c2ccccc12)C(=O)N[C@@H](Cc1ccccc1)C(=O)N[C@@H](CCCNC(=N)N)C(=O)N1CCC[C@H]1C(N)=O ({Acetyl(2-thienyl)}-[NMeW]FRP-NH2),Activity,[1]; filed as antagonist,Active
same,Activity,Neuromedin-U receptor 2 [2],Active
CN(C(=O)Cc1cccs1)[C@@H](Cc1c[nH]c2ccccc12)C(=O)N1Cc2ccccc2C[C@H]1C(=O)N[C@@H](CCCNC(=N)N)C(=O)N1CCC[C@H]1C(=O)N[C@@H](CCCNC(=N)N)C(N)=O ({Acetyl(2-thienyl)}-[NMeW][Tic]RPR-NH2),Selectivity ratio,Homo sapiens,2
CN(C(=O)Cc1cccs1)[C@@H](Cc1ccc(O)cc1)C(=O)N[C@@H](Cc1ccccc1)C(=O)N[C@@H](CCCNC(=N)N)C(=O)N1CCC[C@H]1C(=O)N[C@@H](CCCNC(=N)N)C(=O)N[C@@H](CC(N)=O)C(N)=O ({Acetyl(2-thienyl)}-[NMeY]FRPRN-NH2),Activity,[1]; filed as antagonist,Active
CN(C(=O)Cc1cccs1)[C@@H](Cc1c[nH]c2ccccc12)C(=O)N[C@@H](Cc1ccccc1)C(=O)N[C@@H](CCCNC(=N)N)C(=O)N1CCC[C@H]1C(=O)N[C@@H](CCCCNC(=N)N)C(N)=O ({Acetyl(2-thienyl)}-[NMeW]FRP[hArg]-NH2),Activity,[1]; filed as antagonist,Active
same,Activity,Neuromedin-U receptor 2 [2],Active
CC(C)C[C@@H](C(=O)N[C@@H](Cc1ccccc1)C(=O)N[C@@H](CCCNC(=N)N)C(=O)N1CCC[C@H]1C(=O)N[C@@H](CCCNC(=N)N)C(=O)N[C@@H](CC(N)=O)C(N)=O)N(C)C(=O)Cc1cccs1 ({Acetyl(2-thienyl)}-[NMeL]FRPRN-NH2),Activity,[1]; filed as antagonist,Active
CN(C(=O)Cc1cccs1)[C@@H](Cc1ccccc1)C(=O)N[C@@H](Cc1ccccc1)C(=O)N[C@@H](CCCNC(=N)N)C(=O)N1CCC[C@H]1C(=O)N[C@@H](CCCNC(=N)N)C(=O)N[C@@H](CC(N)=O)C(N)=O ({Acetyl(2-thienyl)}-[NMeF]FRPRN-NH2),Activity,[1]; filed as antagonist,Active
CN(C(=O)Cc1cccs1)[C@@H](Cc1c[nH]c2ccccc12)C(=O)N[C@@H](Cc1ccccc1)C(=O)N[C@@H](CCCNC(=N)N)C(=O)N1CCC[C@H]1C(=O)N[C@@H](CCCNC(=N)N)C(=O)N[C@@H](CCC(N)=O)C(N)=O ({Acetyl(2-thienyl)}-[NMeW]FRPRQ-NH2),Activity,[1]; filed as antagonist,Active
CN(C(=O)Cc1cccs1)[C@@H](Cc1c[nH]c2ccccc12)C(=O)N[C@@H](Cc1ccccc1)C(=O)N[C@@H](CCCNC(=N)N)C(=O)N1CCC[C@H]1C(=O)N[C@@H](CCCNC(=N)N)C(N)=O ({Acetyl(2-thienyl)}-[NMeW]FRPR-NH2),Activity,[1]; filed as antagonist,Active
same,Selectivity ratio,Homo sapiens,2.1
CN(C(=O)Cc1cccs1)[C@@H](Cc1c[nH]c2ccccc12)C(=O)N[C@@](C)(Cc1ccccc1)C(=O)N[C@@H](CCCNC(=N)N)C(=O)N1CCC[C@H]1C(=O)N[C@@H](CCCNC(=N)N)C(N)=O ({Acetyl(2-thienyl)}-[NMeW][αMeF]RPR-NH2),half-life,[3],5 min
same,Kb,[4],45 nM
same,Activity,[1]; filed as antagonist,Dose-Dependent Effect
same,Selectivity ratio,Homo sapiens,2.3
same,Retention_time,[5],48.27 min
same,Kb,Neuromedin-U receptor 1,44.7 nM
same,Stability,[6],Unstable
same,Stability,[7],Stable
same,Kb,Neuromedin-U receptor 2 [8],417 nM
same,Kb,Neuromedin-U receptor 2 [9],421 nM
same,Activity,[10],inactive
same,remaining at 2 h,[11],96.7%
same,Drug metabolism,[12],Metabolite_Detected
same,Activity,[13],inactive
same,remaining at 0.25 h,[14],97%
same,Activity,Neuromedin-U receptor 2 [2],Dose-Dependent Effect
CN(C(=O)Cc1cccs1)[C@@H](Cc1c[nH]c2ccccc12)C(=O)N[C@@H](Cc1ccc(F)cc1)C(=O)N[C@@H](CCCNC(=N)N)C(=O)N1CCC[C@H]1C(=O)N[C@@H](CCCNC(=N)N)C(N)=O ({Acetyl(2-thienyl)}-[NMeW][Phe(4-F)]RPR-NH2),half-life,[3],1.9 min
same,Kb,[4],6.4 nM
same,Activity,[1]; filed as antagonist,Active
same,Kb,Neuromedin-U receptor 1,6.46 nM
same,Kb,Neuromedin-U receptor 2 [8],41.7 nM
same,Kb,Neuromedin-U receptor 2 [9],41 nM
same,Activity,[10],inactive
same,Activity,[15],Active
same,Activity,[13],inactive
same,Activity,Neuromedin-U receptor 2 [2],Active
